Measured values reported in ChEMBL document CHEMBL4507310, “Data for DCP probe A-1211212” (2021).

Columns and labels:
[1] = biological target: Bcl-2-like protein 1 (Homo sapiens, UniProt Q07817); assay: Time-resolved fluorescence energy transfer (TR-FRET) with BCL2L1
[2] = biological target: MAO-B (amine oxidase [flavin-containing] B) (Homo sapiens, UniProt P27338); assay: MAO-B (h) recombinant enzyme Eurofins-Cerep enzyme and uptake assay; parameters: incubation time 60 min, incubation temperature 37°C, substrate/stimulus/tracer D-Luciferin derivative (4 µM); settings: probe D-Luciferin derivative (4 µM), compound concentration 10 uM, read-out: % Inhibition of Control Values (Mean n=2)
[3] = biological target: Adenosine receptor A1 (Homo sapiens) (UniProt P30542); assay: A1 (h) Eurofins-Cerep binding assay; parameters: ligand concentration 1 nM; settings: filed as antagonist, Compound concentration 10.0 uM
[4] = biological target: Substance-K receptor (Homo sapiens) (UniProt P21452); assay: NK2 (h) Eurofins-Cerep binding assay; parameters: ligand concentration 0.1 nM; settings: filed as agonist, Compound concentration 10.0 uM
Chain of Substance-K receptor (Homo sapiens) (P21452 whole entry): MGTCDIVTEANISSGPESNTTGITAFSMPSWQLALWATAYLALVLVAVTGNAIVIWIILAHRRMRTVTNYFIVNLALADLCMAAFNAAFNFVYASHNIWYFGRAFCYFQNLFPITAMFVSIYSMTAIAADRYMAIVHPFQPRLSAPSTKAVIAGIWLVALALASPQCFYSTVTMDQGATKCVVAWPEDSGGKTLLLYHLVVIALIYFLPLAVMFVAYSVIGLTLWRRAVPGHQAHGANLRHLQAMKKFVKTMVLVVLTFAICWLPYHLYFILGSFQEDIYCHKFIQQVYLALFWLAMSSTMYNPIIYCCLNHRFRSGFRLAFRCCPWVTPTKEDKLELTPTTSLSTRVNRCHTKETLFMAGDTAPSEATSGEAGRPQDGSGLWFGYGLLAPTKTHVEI

[5] = biological target: Delta-type opioid receptor (Homo sapiens) (UniProt P41143); assay: delta (DOP) (h) Eurofins-Cerep binding assay; parameters: ligand concentration 0.5 nM; settings: filed as agonist, Compound concentration 10.0 uM
Chain of Delta-type opioid receptor (Homo sapiens) (P41143 whole entry): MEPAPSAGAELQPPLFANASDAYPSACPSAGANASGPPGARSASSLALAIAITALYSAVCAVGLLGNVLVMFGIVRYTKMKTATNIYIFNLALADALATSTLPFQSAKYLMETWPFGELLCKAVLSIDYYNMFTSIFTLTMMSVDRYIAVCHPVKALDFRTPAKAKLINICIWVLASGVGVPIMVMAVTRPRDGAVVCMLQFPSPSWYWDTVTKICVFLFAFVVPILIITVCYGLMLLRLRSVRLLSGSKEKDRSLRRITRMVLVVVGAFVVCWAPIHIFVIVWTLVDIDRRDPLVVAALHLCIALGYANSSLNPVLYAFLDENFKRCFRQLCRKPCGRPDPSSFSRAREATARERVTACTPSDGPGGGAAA

[6] = biological target: T1, 5-hydroxytryptamine receptor 2C (Homo sapiens) (UniProt P28335); assay: 5-HT2C (h) Eurofins-Cerep binding assay; parameters: ligand concentration 1 nM; settings: filed as antagonist, Compound concentration 10.0 uM
T1 sequence (whole entry): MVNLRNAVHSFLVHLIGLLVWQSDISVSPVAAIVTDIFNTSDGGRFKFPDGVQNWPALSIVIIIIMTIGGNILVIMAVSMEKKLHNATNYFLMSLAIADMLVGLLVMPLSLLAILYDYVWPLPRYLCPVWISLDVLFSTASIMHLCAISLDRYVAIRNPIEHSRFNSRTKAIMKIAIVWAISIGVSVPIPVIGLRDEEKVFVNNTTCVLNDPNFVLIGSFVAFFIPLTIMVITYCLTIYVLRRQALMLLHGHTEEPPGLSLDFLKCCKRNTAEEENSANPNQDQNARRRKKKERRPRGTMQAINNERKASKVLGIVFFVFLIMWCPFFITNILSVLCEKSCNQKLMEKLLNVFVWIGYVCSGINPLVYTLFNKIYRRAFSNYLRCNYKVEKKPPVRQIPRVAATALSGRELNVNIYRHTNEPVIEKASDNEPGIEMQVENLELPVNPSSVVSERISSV

[7] = biological target: Sodium-dependent noradrenaline transporter (Homo sapiens) (UniProt P23975); assay: norepinephrine transporter (h) Eurofins-Cerep binding assay; parameters: ligand concentration 1 nM; settings: filed as antagonist, Compound concentration 10.0 uM
Chain of Sodium-dependent noradrenaline transporter (Homo sapiens) (P23975 whole entry): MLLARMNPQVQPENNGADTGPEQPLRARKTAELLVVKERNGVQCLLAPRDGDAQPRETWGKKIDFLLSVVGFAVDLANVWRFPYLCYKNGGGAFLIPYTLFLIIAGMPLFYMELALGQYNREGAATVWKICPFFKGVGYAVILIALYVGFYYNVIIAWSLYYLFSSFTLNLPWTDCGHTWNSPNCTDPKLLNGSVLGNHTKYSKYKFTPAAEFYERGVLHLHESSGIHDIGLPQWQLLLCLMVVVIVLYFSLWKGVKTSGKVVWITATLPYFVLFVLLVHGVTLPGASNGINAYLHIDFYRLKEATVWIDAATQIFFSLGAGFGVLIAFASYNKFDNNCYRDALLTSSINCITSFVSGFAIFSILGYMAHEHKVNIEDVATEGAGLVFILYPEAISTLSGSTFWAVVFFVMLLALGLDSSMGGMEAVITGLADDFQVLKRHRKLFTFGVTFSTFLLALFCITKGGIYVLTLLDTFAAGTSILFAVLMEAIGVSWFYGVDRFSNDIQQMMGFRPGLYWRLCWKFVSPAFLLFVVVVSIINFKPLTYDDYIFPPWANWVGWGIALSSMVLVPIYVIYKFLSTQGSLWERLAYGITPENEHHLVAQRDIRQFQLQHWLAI

[8] = test system: Tyrosine-protein kinase ABL1 (Homo sapiens), P00519 [Q252H]; settings: Compound concentration 1000.0 nM
[9] = test system: Tyrosine-protein kinase ABL1 (Homo sapiens), P00519 [Q252H]; settings: Compound concentration 1000.0 nM; remark: listed apart in the source
[10] = biological target: Activin receptor type-2A (Homo sapiens) (UniProt P27037); settings: Compound concentration 1000.0 nM
[11] = biological target: Calcium/calmodulin-dependent protein kinase type 1G (Homo sapiens) (UniProt Q96NX5); settings: Compound concentration 1000.0 nM
Chain of Calcium/calmodulin-dependent protein kinase type 1G (Homo sapiens) (Q96NX5 whole entry): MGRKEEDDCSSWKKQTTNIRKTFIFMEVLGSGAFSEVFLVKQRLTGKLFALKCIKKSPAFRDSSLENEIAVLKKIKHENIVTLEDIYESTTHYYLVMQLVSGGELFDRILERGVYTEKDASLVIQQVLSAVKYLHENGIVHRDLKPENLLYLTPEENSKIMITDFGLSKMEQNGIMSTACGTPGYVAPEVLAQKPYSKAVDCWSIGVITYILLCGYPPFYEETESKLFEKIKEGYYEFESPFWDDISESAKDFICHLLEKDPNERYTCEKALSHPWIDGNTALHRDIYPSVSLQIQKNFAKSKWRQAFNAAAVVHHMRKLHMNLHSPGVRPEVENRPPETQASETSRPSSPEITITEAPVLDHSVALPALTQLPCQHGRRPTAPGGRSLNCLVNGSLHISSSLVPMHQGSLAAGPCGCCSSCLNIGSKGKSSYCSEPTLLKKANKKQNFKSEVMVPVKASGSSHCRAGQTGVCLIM

[12] = biological target: Peripheral plasma membrane protein CASK (Homo sapiens) (UniProt O14936); settings: Compound concentration 1000.0 nM
[13] = biological target: Casein kinase I isoform epsilon (Homo sapiens) (UniProt P49674); settings: Compound concentration 1000.0 nM
[14] = biological target: Casein kinase II subunit alpha' (Homo sapiens) (UniProt P19784); settings: Compound concentration 1000.0 nM
[15] = biological target: Receptor tyrosine-protein kinase erbB-3 (Homo sapiens) (UniProt P21860); settings: Compound concentration 1000.0 nM
[16] = biological target: Fibroblast growth factor receptor 4 (Homo sapiens) (UniProt P22455); settings: Compound concentration 1000.0 nM
[17] = test system: Receptor-type tyrosine-protein kinase FLT3 (Homo sapiens), P36888 [D835H]; settings: Compound concentration 1000.0 nM
[18] = biological target: Vascular endothelial growth factor receptor 3 (Homo sapiens) (UniProt P35916); settings: Compound concentration 1000.0 nM
[19] = biological target: Tyrosine-protein kinase FRK (Homo sapiens) (UniProt P42685); settings: Compound concentration 1000.0 nM
[20] = test system: eIF-2-alpha kinase GCN2 (Homo sapiens), Q9P2K8 [S808G]; settings: Compound concentration 1000.0 nM
Chain of eIF-2-alpha kinase GCN2 (Homo sapiens), Q9P2K8 [S808G] (Q9P2K8 whole entry S808G): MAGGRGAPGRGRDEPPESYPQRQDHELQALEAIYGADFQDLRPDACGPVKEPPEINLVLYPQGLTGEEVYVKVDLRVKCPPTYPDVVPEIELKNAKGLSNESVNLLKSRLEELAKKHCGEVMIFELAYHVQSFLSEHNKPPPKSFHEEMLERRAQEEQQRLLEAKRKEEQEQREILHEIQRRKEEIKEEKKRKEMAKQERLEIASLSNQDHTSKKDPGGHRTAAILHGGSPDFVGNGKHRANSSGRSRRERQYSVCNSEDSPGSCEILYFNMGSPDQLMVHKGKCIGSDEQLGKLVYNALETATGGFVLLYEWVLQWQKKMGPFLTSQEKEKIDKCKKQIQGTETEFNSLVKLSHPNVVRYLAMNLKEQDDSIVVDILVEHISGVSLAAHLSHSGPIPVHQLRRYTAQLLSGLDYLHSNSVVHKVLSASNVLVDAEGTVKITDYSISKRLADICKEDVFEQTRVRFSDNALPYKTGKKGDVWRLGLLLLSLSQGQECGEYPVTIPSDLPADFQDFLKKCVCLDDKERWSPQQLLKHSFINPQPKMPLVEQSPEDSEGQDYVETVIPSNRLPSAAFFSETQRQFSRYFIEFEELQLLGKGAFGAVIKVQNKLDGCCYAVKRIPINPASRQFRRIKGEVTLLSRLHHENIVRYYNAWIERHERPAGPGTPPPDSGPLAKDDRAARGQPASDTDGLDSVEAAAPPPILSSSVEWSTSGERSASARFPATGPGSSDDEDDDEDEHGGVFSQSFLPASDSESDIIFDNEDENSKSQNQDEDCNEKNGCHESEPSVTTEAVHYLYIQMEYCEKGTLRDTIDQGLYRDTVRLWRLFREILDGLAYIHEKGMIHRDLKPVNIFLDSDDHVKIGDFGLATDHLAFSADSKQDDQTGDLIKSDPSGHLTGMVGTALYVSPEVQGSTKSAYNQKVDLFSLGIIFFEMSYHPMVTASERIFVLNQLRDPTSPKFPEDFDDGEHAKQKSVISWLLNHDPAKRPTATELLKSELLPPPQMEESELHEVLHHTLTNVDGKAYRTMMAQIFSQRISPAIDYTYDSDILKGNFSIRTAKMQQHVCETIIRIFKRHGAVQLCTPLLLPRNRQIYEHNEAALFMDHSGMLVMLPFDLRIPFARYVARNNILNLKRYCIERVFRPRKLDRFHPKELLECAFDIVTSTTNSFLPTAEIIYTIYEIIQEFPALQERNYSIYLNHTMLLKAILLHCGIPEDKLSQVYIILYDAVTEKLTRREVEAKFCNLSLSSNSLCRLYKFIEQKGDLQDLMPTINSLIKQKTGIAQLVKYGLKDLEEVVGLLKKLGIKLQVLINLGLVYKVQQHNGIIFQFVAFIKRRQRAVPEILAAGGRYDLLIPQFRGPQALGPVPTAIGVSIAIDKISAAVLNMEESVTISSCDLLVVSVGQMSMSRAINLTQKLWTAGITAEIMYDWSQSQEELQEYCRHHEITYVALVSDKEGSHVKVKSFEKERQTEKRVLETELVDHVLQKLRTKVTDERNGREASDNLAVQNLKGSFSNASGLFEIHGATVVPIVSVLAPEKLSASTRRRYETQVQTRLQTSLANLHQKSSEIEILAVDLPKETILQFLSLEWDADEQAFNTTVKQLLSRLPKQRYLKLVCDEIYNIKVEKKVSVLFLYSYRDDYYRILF

[21] = test system: Mast/stem cell growth factor receptor Kit (Homo sapiens), P10721 [V559D]; settings: Compound concentration 1000.0 nM
[22] = test system: Leucine-rich repeat serine/threonine-protein kinase 2 (Homo sapiens), Q5S007 [G2019S]; settings: Compound concentration 1000.0 nM
[23] = biological target: Serine/threonine-protein kinase MAK (Homo sapiens) (UniProt P20794); settings: Compound concentration 1000.0 nM
Chain of Serine/threonine-protein kinase MAK (Homo sapiens) (P20794 whole entry): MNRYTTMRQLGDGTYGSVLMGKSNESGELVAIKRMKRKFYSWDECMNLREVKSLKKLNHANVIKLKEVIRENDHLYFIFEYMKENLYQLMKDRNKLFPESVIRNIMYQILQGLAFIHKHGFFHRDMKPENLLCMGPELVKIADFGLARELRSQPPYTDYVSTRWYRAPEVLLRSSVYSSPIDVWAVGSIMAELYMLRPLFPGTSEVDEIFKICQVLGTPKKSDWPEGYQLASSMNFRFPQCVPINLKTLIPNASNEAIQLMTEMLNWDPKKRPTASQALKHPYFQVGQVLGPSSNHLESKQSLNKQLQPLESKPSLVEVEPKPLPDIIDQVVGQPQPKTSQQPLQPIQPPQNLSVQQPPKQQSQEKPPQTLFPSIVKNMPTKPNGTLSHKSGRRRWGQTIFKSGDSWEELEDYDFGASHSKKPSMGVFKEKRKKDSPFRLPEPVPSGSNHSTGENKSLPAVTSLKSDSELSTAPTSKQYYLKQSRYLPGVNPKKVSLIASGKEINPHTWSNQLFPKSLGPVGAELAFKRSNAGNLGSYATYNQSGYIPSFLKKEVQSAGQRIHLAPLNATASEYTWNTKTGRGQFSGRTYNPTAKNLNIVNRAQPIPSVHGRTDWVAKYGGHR

[24] = biological target: MAP kinase-interacting serine/threonine-protein kinase 2 (Homo sapiens) (UniProt Q9HBH9); settings: Compound concentration 1000.0 nM
[25] = biological target: Serine/threonine-protein kinase Nek11 (Homo sapiens) (UniProt Q8NG66); settings: Compound concentration 1000.0 nM
[26] = biological target: Serine/threonine-protein kinase Nek6 (Homo sapiens) (UniProt Q9HC98); settings: Compound concentration 1000.0 nM
[27] = biological target: Serine/threonine-protein kinase D3 (Homo sapiens) (UniProt O94806); settings: Compound concentration 1000.0 nM
Chain of Serine/threonine-protein kinase D3 (Homo sapiens) (O94806 whole entry): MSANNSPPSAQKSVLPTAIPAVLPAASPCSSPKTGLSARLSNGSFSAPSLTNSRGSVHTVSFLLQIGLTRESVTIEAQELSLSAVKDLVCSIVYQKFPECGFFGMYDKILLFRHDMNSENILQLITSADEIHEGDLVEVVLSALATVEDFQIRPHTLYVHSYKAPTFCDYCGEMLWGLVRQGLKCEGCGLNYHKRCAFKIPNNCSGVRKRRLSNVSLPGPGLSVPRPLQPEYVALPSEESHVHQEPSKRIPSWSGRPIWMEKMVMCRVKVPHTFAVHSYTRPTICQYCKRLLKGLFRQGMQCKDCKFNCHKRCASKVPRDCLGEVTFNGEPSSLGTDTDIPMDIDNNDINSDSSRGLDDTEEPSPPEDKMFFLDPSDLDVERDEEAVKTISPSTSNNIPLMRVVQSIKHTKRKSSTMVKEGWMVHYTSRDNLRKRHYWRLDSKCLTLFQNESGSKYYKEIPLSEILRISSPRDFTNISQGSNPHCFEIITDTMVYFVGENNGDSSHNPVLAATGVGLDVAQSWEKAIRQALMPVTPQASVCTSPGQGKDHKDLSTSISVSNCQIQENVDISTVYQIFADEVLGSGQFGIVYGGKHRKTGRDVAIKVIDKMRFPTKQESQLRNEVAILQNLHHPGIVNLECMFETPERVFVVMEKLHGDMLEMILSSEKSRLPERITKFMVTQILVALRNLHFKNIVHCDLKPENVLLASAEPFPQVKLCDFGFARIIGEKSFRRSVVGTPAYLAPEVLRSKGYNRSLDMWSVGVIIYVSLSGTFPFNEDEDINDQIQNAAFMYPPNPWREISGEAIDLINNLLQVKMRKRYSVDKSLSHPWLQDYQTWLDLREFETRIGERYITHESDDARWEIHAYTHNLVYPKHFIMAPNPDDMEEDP

[28] = biological target: Ribosomal protein S6 kinase alpha-5 (Homo sapiens) (UniProt O75582); settings: Compound concentration 1000.0 nM
[29] = biological target: TGF-beta receptor type-1 (Homo sapiens) (UniProt P36897); settings: Compound concentration 1000.0 nM
[30] = biological target: Mu-type opioid receptor (Homo sapiens) (UniProt P35372); settings: Compound concentration 10.0 uM
[31] = biological target: T2, Alpha-2B adrenergic receptor (Homo sapiens) (UniProt P18089); settings: Compound concentration 10.0 uM
T2 sequence (whole entry): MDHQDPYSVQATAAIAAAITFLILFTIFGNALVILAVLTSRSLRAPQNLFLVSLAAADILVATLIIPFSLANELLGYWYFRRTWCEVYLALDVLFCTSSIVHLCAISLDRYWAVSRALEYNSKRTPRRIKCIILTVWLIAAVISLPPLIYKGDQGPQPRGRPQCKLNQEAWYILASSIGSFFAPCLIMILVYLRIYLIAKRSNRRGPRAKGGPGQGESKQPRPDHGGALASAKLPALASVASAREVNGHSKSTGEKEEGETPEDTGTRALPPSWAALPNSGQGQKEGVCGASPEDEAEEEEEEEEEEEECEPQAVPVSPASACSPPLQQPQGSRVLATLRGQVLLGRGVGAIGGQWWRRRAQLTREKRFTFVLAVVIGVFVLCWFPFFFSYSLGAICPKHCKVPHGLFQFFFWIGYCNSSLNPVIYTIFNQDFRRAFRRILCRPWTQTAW

[32] = biological target: Muscarinic acetylcholine receptor M3 (Homo sapiens) (UniProt P20309); settings: Compound concentration 10.0 uM

Row | SMILES | IC50 [1] | inhibition at 60 min, 10 µM [2] [%] | % Inhibition of Control Specific Binding (Mean n=2) [3] [%] | % Inhibition of Control Specific Binding (Mean n=2) [4] [%] | % Inhibition of Control Specific Binding (Mean n=2) [5] [%] | % Inhibition of Control Specific Binding (Mean n=2) [6] [%] | % Inhibition of Control Specific Binding (Mean n=2) [7] [%] | residual activity [8] [%] | residual activity [9] [%] | residual activity [10] [%] | residual activity [11] [%] | residual activity [12] [%] | residual activity [13] [%] | residual activity [14] [%] | residual activity [15] [%] | residual activity [16] [%] | residual activity [17] [%] | residual activity [18] [%] | residual activity [19] [%] | residual activity [20] [%] | further results
1 | O=C(NS(=O)(=O)c1ccc(NCC2CCOCC2)c([N+](=O)[O-])c1)c1ccc(N2CCN(Cc3ccc(C(F)(F)F)cc3-c3ccc(Cl)cc3)CC2)cc1Oc1cnc2[nH]ccc2c1 [A-1210227] | > 25 µM (not active) | -4.3 | 13.6 | -2.4 | 7.4 | 3.7 | -14.5 | 100 | 84 | 93 | 92 | 80 | 95 | 100 | 100 | 96 | 100 | 100 | 100 | 85 | residual activity [21]: 100%; residual activity [22]: 88%; residual activity [23]: 97%; residual activity [24]: 83%; residual activity [25]: 97%; residual activity [26]: 89%; residual activity [27]: 100%; residual activity [28]: 97%; residual activity [29]: 93%; inhibition [30]: 10.7%; inhibition [31]: 15.6%; inhibition [32]: 12.6%
2 | CO[C@H]1CC[C@H](CNc2ccc(S(=O)(=O)NC(=O)c3ccc(N4CCN(CC5=C(c6ccc(Cl)cc6)CC(C)(C)CC5)CC4)cc3Oc3cnc4[nH]ccc4c3)cc2[N+](=O)[O-])CC1 [A-1211212] | 0.753 µM (not active) | 16.9 | 9.1 | -6.1 | 2.8 | -4.1 | 16.2 | 81 | 100 | 91 | 73 | 100 | 88 | 100 | 100 | 87 | 78 | 89 | 100 | 96 | residual activity [21]: 99%; residual activity [22]: 100%; residual activity [23]: 90%; residual activity [24]: 73%; residual activity [25]: 100%; residual activity [26]: 89%; residual activity [27]: 100%; residual activity [28]: 65%; residual activity [29]: 84%; inhibition [30]: 10.2%; inhibition [31]: 33%; inhibition [32]: 3.65%
